Where two headings read alike, the source gives them in different places.
Assays:
[1] = mouse, in vivo, 20 mg/kg
[2] = mice; cited from earlier work
[3] = Non-model pharmacokinetics in mice; conditions: base 20 mg/kg
[4] = rabbit, in vivo, 20 mg/kg
generalized tuberculosis = conditions: doses 10 mg/kg, after 60 days of treatment, test animals; cited from earlier work
Solubility = assay type: physicochemical; conditions: water and organic solvents
Experimental: 4,62 g (0,005 g/moll) of 3-(4-cinnamyl-1-piperazinyl)-iminomethyl rifamycin SV is suspended in 40 ml methanol and 0,1 g sodium ascorbate dissolved in 1 ml water is added. To the obtained suspension 0,9 ml of 30% methanol solution of sodium methylate (equimolar quantity) is added. The suspension immediately turns into a solution because of the formation of the sodium salt. The reaction mixture is filtered to remove the unsolved sediment of sodium ascorbate, and the solvent is concentratrated in vacuum and dried to give the soduim salt as a dark-red solid powder. This product has high purity and the yield is practically quantitative.

[5] = rat, in vivo, 20 mg/kg
[6] = Stability of water solutions; assay type: physicochemical
[7] = test system: Gram-positive microorganisms including aerobic, anaerobic and Mycobacterium (typical and atypical); test: In vitro antibacterial activity; assay type: cell-based; conditions: in comparison with the initial compound T-9

Row | Molecule | AUC [1] [µg·h/mL] | CL [1] [mL·min/kg] | Cmax [1] [ng/mL] | Tmax [1] [h] | acute toxicity [2] [mg/kg] | T1/2 ([3]; p.o) [h] | AUC [4] [µg·h/mL] | Cmax [4] [ng/mL] | T1/2 [4] [h] | Tmax [4] [h] | therapeutic activity in generalized tuberculosis (generalized tuberculosis) | solubility (Solubility) | AUC [5] [µg·h/mL] | Cmax [5] [ng/mL] | T1/2 [5] [h] | Tmax [5] [h] | stability of the obtained water solutions [6] | T1/2 ([3]; i.v) [h] | antibacterial activity in vitro [7]
1 | CO[C@H]1/C=C/O[C@@]2(C)Oc3c(C)c(O)c4c(O)c(c(/C=N/N5CCN(C/C=C/c6ccccc6)CC5)c(O)c4c3C2=O)NC(=O)/C(C)=C\C=C\[C@H](C)[C@H](O)[C@@H](C)[C@@H](O)[C@@H](C)[C@H](OC(C)=O)[C@@H]1C [T-9, 3-(4-cinnamyl-1-piperazinyl)-iminomethyl rifamycin SV, reference compound] | 735 | 0.092 | 12400 | 8 | 4000 | 33.70 | 233 | 2750 | 56.63 | 2 | full organ sterilization | unsoluble | 543 | 8200 | 21.18 | 6 | – | – | –
2 | sodium salt of 3-(4-cinnamyl-1-piperazinyl)-iminomethyl rifamycin SV [T-11] | – | 0.092 | – | – | – | 38.02 | 299 | 2710 | 28.04 | 2 | – | soluble in water, methanol, ethanol, acetone and unsoluble in isopropanol | 671 | 9200 | 20.04 | 2 | good stability | 39.08 | good antibacterial activity
3 | CO[C@H]1/C=C/O[C@@]2(C)Oc3c(C)c(O)c4c(O)c(c(/C=N/N5CCN(C)CC5)c(O)c4c3C2=O)NC(=O)/C(C)=C\C=C\[C@H](C)[C@H](O)[C@@H](C)[C@@H](O)[C@@H](C)[C@H](OC(C)=O)[C@@H]1C [Rifampicin] | – | – | – | – | 1500 | – | – | – | – | – | – | – | – | – | – | – | – | – | –
